Like-named read-outs stand apart in the source and are kept apart here.
Tested on: Human myeloid monocytic leukemia cell line (MV-4-11)
Assay: Inhibition of MV-4-11 cell proliferation (CellTiter luminescent viability)
Type: cell-based
Conditions: Homo sapiens, MV4-11; for inhibition at 0.01 µM: read-out: Inhibition Rate at 10 nM (%); for inhibition at 0.5 µM: read-out: Inhibition Rate at 500 nM (%)
Method: The tumor cells used herein were cultured in a cell culture medium listed in table 3 at 37 °C in an incubator with 5% CO2. Prior to experimentation, all cell lines used were correctly identified by STR profiling, and tested negative for mycoplasma contamination using a mycoplasma detection kit through routine screenings.
The IC50 values of the compounds of the present disclosure (including the compounds in Table 1, Table 2, and Examples 1-468) were determined using the CellTiter-Meiluncell Luminescent Cell Viability Assay Kit from Dalian Meilun Biotech Co., Ltd. The detailed procedure is as follows: Tumor cells were seeded in 96-well cell culture plates at the densities specified in Table 4. On the following day, the test compounds of the present disclosure were subjected to serial dilution. The dilution can be performed according to one of the following two methods: • (1) The first dilution method: The test compounds of the present disclosure (including the compounds in Table 1, Table 2, and Examples 1-468) were subjected to 5-fold serial dilutions starting from a highest concentration of 2000 μM, resulting in a total of 9 concentrations from high to low (2000, 400, 80, 16, 3.2, 0.64, 0.128, 0.0256, 0.00512 μM). Subsequently, 0.5 μL of the test compound dilution was transferred into the 96-well plate containing the cells, with each well containing 100 μL of cell culture medium. […] Into the 96-well plate, the diluted test compounds and corresponding detection reagents were added, resulting in final test compound concentrations of 500 nM and 10 nM, respectively. The experimental procedure is described below using the diluted 2 μM test compound as an example.
0.5 μL of the aforementioned diluted compound of the present disclosure (including the compounds in Table 1, Table 2, and Examples 1-468) was added to the seeded cells in 100 μL of medium, yielding a final test compound concentration of 10 nM. After the cells were treated with the compounds of the present disclosure for a specified period, the cell viability assay reagent was added to the culture medium according to the kit's instructions to determine cell viability. […] All controls were treated using the same procedure as the compounds of the present disclosure. The growth inhibition curves for the compounds of the present disclosure were plotted using Prism GraphPad software, and the IC50 values were calculated therefrom.

[1] = Table IL2, BCR-ABL inhibitor-based, MV-4-11, 10 nM, 96 hours
[2] = Table IL2, BCR-ABL inhibitor-based, MV-4-11, 500 nM, 96 hours
[3] = Table IB2, ALK inhibitor-based, MV-4-11, 10 nM, 96 hours
[4] = Table IB2, ALK inhibitor-based, MV-4-11, 500 nM, 96 hours
[5] = Table IG2, FAK inhibitor-based, MV-4-11, 10 nM, 96 hours
[6] = Table IG2, FAK inhibitor-based, MV-4-11, 500 nM, 96 hours

SMILES: Cc1ccc(C(=O)Nc2ccc(N3CCC(N(C)Cc4ccc5c(c4)C(=O)N(N4CCC(=O)NC4=O)C5=O)CC3)c(C(F)(F)F)c2)cc1C#Cc1cnc2cccnn12 [GT-08221, N-(4-(4-(((2-(2,4-dioxotetrahydropyrimidin-1(2H)-yl)-1,3-dioxoisoindolin-5-yl)methyl)(methyl)amino)piperidin-1-yl)-3-(trifluoromethyl)phenyl)-3-(imidazo[1,2-b]pyridazin-3-ylethynyl)-4-methylbenzamide]
- inhibition at 0.01 µM [1]: -5 to 0%
- inhibition at 0.5 µM [2]: 50 to 60%

SMILES: Cc1ccc(C(=O)Nc2ccc(CN3CCN(CC4CCN(c5cccc6c5C(=O)N(N5CCC(=O)NC5=O)C6=O)CC4)CC3)c(C(F)(F)F)c2)cc1C#Cc1cnc2cccnn12 [GT-08353, N-(4-((4-((1-(2-(2,4-dioxotetrahydropyrimidin-1(2H)-yl)-1,3-dioxoisoindolin-4-yl)piperidin-4-yl)methyl)piperazin-1-yl)methyl)-3-(trifluoromethyl)phenyl)-3-(imidazo[1,2-b]pyridazin-3-ylethynyl)-4-methylbenzamide]
- inhibition at 0.01 µM [1]: 50 to 60%
- inhibition at 0.5 µM [2]: 80 to 100%

SMILES: COc1cc(N2CCC(N3CCN(CC4CCN(c5ccc6c(c5)C(=O)N(N5CCC(=O)NC5=O)C6=O)CC4)CC3)CC2)ccc1Nc1ncc(Cl)c(Nc2ccccc2P(C)(C)=O)n1 [GT-08251, 5-(4-((4-(1-(4-((5-chloro-4-((2-(dimethylphosphoryl)phenyl)amino)pyrimidin-2-yl)amino)-3-methoxyphenyl)piperidin-4-yl)piperazin-1-yl)methyl)piperidin-1-yl)-2-(2,4-dioxotetrahydropyrimidin-1(2H)-yl)isoindoline-1,3-dione]
- inhibition at 0.01 µM [3]: 30 to 45%
- inhibition at 0.5 µM [4]: 60 to 80%

SMILES: CN(Cc1ccc2c(c1)CN(N1CCC(=O)NC1=O)C2=O)C1CCN(c2ccc(Nc3ncc(C(F)(F)F)c(NCc4cccc(N(C)S(C)(=O)=O)c4)n3)cc2)CC1 [GT-08142, N-(3-(((2-((4-(4-(((2-(2,4-dioxotetrahydropyrimidin-1(2H)-yl)-1-oxoisoindolin-5-yl)methyl)(methyl)amino)piperidin-1-yl)phenyl)amino)-5-(trifluoromethyl)pyrimidin-4-yl)amino)methyl)phenyl)-N-methylmethanesulfonamide]
- inhibition at 0.01 µM [5]: 40 to 50%
- inhibition at 0.5 µM [6]: 80 to 100%

SMILES: Cc1ccc(C(=O)Nc2ccc(N3CCN(Cc4ccc5c(c4)CN(N4CCC(=O)NC4=O)C5=O)CC3)c(C(F)(F)F)c2)cc1C#Cc1cnc2cccnn12 [GT-08218, N-(4-(4-((2-(2,4-dioxotetrahydropyrimidin-1(2H)-yl)-1-oxoisoindolin-5-yl)methyl)piperazin-1-yl)-3-(trifluoromethyl)phenyl)-3-(imidazo[1,2-b]pyridazin-3-ylethynyl)-4-methylbenzamide]
- inhibition at 0.01 µM [1]: 5 to 10%
- inhibition at 0.5 µM [2]: 80 to 100%

SMILES: CN(c1cccc(CNc2nc(Nc3ccc(N4CCC(N5CCN(Cc6ccc7c(c6)CN(N6CCC(=O)NC6=O)C7=O)CC5)CC4)cc3)ncc2C(F)(F)F)c1)S(C)(=O)=O [GT-08144, N-(3-(((2-((4-(4-(4-((2-(2,4-dioxotetrahydropyrimidin-1(2H)-yl)-1-oxoisoindolin-5-yl)methyl)piperazin-1-yl)piperidin-1-yl)phenyl)amino)-5-(trifluoromethyl)pyrimidin-4-yl)amino)methyl)phenyl)-N-methylmethanesulfonamide]
- inhibition at 0.01 µM [5]: 30 to 40%
- inhibition at 0.5 µM [6]: 80 to 100%

SMILES: COc1cc(N2CCC(N(C)CC3CCN(c4ccc5c(c4)C(=O)N(N4CCC(=O)NC4=O)C5=O)CC3)CC2)ccc1Nc1ncc(Cl)c(Nc2ccccc2P(C)(C)=O)n1 [GT-08253, 5-(4-(((1-(4-((5-chloro-4-((2-(dimethylphosphoryl)phenyl)amino)pyrimidin-2-yl)amino)-3-methoxyphenyl)piperidin-4-yl)(methyl)amino)methyl)piperidin-1-yl)-2-(2,4-dioxotetrahydropyrimidin-1(2H)-yl)isoindoline-1,3-dione]
- inhibition at 0.01 µM [3]: 15 to 20%
- inhibition at 0.5 µM [4]: 45 to 55%

SMILES: C[C@@H]1CNC(=O)c2cc3ccc(C(=O)Nc4cnn(Cc5ccc(N6CCN(CC7CCN(c8ccc9c(c8)C(=O)N(N8CCC(=O)NC8=O)C9=O)CC7)CC6)cc5)c4)nc3n21 [GT-08255, (R)—N-(1-(4-(4-((1-(2-(2,4-dioxotetrahydropyrimidin-1(2H)-yl)-1,3-dioxoisoindolin-5-yl)piperidin-4-yl)methyl)piperazin-1-yl)benzyl)-1H-pyrazol-4-yl)-9-methyl-6-oxo-6,7,8,9-tetrahydropyrido[3′,2′: 4,5]pyrrolo[1,2-a]pyrazine-2-carboxamide]
- inhibition at 0.01 µM (MV-4-11, 10 nM): -15 to -5%
- inhibition at 0.5 µM (MV-4-11, 500 nM): 50 to 70%

SMILES: CN(c1nccnc1CNc1nc(Nc2ccc(N3CCN(Cc4ccc5c(c4)CN(N4CCC(=O)NC4=O)C5=O)CC3)cc2)ncc1C(F)(F)F)S(C)(=O)=O [GT-07504, N-(3-(((2-((4-(4-((2-(2,4-dioxotetrahydropyrimidin-1(2H)-yl)-1-oxoisoindolin-5-yl)methyl)piperazin-1-yl)phenyl)amino)-5-(trifluoromethyl)pyrimidin-4-yl)amino)methyl)pyrazin-2-yl)-N-methylmethanesulfonamide]
- inhibition at 0.01 µM [5]: -5 to 0%
- inhibition at 0.5 µM [6]: 80 to 100%

SMILES: CC(C)(O)c1cc2nn(C3CCN(Cc4ccc5c(c4)CN(N4CCC(=O)NC4=O)C5=O)CC3)cc2cc1NC(=O)c1cccc(C(F)(F)F)n1 [GT-05746, N-(2-(1-((2-(2,4-dioxotetrahydropyrimidin-1(2H)-yl)-1-oxoisoindolin-5-yl)methyl)piperidin-4-yl)-6-(2-hydroxypropan-2-yl)-2H-indazol-5-yl)-6-(trifluoromethyl) picolinamide]
- inhibition at 0.01 µM (Table IA3, IRAK4 inhibitor-based, MV-4-11, 10 nM, 96 hours): 10 to 20%
- inhibition at 0.5 µM (Table IA3, IRAK4 inhibitor-based, MV-4-11, 500 nM, 96 hours): 60 to 80%

SMILES: COc1cc(N2CCC(N(C)CC3CCN(c4cccc5c4C(=O)N(N4CCC(=O)NC4=O)C5=O)CC3)CC2)ccc1Nc1ncc(Cl)c(Nc2ccccc2P(C)(C)=O)n1 [GT-08254, 4-(4-(((1-(4-((5-chloro-4-((2-(dimethylphosphoryl)phenyl)amino)pyrimidin-2-yl)amino)-3-methoxyphenyl)piperidin-4-yl)(methyl)amino)methyl)piperidin-1-yl)-2-(2,4-dioxotetrahydropyrimidin-1(2H)-yl)isoindoline-1,3-dione]
- inhibition at 0.01 µM [3]: 45 to 55%
- inhibition at 0.5 µM [4]: 60 to 80%

SMILES: C[C@@H]1CNC(=O)c2cc3ccc(C(=O)Nc4cnn(Cc5ccc(N6CCN(CC7CCN(c8cccc9c8C(=O)N(N8CCC(=O)NC8=O)C9=O)CC7)CC6)cc5)c4)nc3n21 [GT-08256, (R)—N-(1-(4-(4-((1-(2-(2,4-dioxotetrahydropyrimidin-1(2H)-yl)-1,3-dioxoisoindolin-4-yl)piperidin-4-yl)methyl)piperazin-1-yl)benzyl)-1H-pyrazol-4-yl)-9-methyl-6-oxo-6,7,8,9-tetrahydropyrido[3′,2′: 4,5]pyrrolo[1,2-a]pyrazine-2-carboxamide]
- inhibition at 0.01 µM (MV-4-11, 10 nM): 20 to 30%
- inhibition at 0.5 µM (MV-4-11, 500 nM): 80 to 100%

SMILES: CN(c1nccnc1CNc1nc(Nc2ccc(N3CCC(N4CCN(Cc5ccc6c(c5)CN(N5CCC(=O)NC5=O)C6=O)CC4)CC3)cc2)ncc1C(F)(F)F)S(C)(=O)=O [GT-08138, N-(3-(((2-((4-(4-(4-((2-(2,4-dioxotetrahydropyrimidin-1(2H)-yl)-1-oxoisoindolin-5-yl)methyl)piperazin-1-yl)piperidin-1-yl)phenyl)amino)-5-(trifluoromethyl)pyrimidin-4-yl)amino)methyl)pyrazin-2-yl)-N-methylmethanesulfonamide]
- inhibition at 0.01 µM [5]: 20 to 30%
- inhibition at 0.5 µM [6]: 80 to 100%

SMILES: Cc1ccc(C(=O)Nc2ccc(CN3CCN(Cc4ccc5c(c4)C(=O)N(N4CCC(=O)NC4=O)C5=O)CC3)c(C(F)(F)F)c2)cc1C#Cc1cnc2cccnn12 [GT-08217, N-(4-((4-((2-(2,4-dioxotetrahydropyrimidin-1(2H)-yl)-1,3-dioxoisoindolin-5-yl)methyl)piperazin-1-yl)methyl)-3-(trifluoromethyl)phenyl)-3-(imidazo[1,2-b]pyridazin-3-ylethynyl)-4-methylbenzamide]
- inhibition at 0.01 µM [1]: 10 to 15%
- inhibition at 0.5 µM [2]: 80 to 100%

— patent US20260364184A1, “COMPOUND BASED ON OXOISOINDOLINYL-SUBSTITUTED TETRAHYDROPYRIMIDINE-DIONE AND USE THEREOF” (GLUETACS THERAPEUTICS (SHANGHAI) CO., LTD., priority 2023, published 2026)
